# Reference: publication PMC8002452, “Molecular Basis of AmpC β-Lactamase Induction by Avibactam in Pseudomonas aeruginosa: PBP Occupancy, Live Cell Binding Dynamics and Impact on Resistant Clinical Isolates Harboring PDC-X Variants” (International Journal of Molecular Sciences, 2021)
# How the values were obtained:
# [1] = target: PBP5/6 (Pseudomonas aeruginosa, UniProt G3XD74); assay: Isolated PBP-containing membranes time-course binding assay; parameters: species or system P. aeruginosa PAO1; settings: isolated PAO1 membranes, 4 µg/mL avibactam, 15-60 min; read-out: PBP5/6 total fraction bound
# Chain of PBP5/6 (G3XD74 entry or part of it): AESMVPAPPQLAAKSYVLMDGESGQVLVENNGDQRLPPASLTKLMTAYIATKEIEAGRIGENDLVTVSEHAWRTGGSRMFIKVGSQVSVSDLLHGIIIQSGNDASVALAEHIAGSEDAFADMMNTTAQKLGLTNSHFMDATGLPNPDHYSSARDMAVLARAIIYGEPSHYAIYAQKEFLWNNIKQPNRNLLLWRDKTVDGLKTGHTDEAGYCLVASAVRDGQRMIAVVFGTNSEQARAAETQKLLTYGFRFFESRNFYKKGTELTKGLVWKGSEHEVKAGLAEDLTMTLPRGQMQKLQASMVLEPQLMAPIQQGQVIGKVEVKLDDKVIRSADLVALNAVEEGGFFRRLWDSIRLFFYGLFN
# Experimental: (§1) Figure 2 Time-course of intact cells and isolated PBP-binding assay. P. aeruginosa PAO1 cultures (a) and isolated PBP-containing membrane preparations (b) were incubated for 15, 30 and 60 min in the presence of 4 µg/mL avibactam (AVI). After isolating PBP-containing membranes, preparations were labeled with 25 µM bocillin FL. The graphs represent the PBP fraction unbound relative to each time control over time. The mean PBP fraction unbound values from at least three independent experiments ± standard deviations are shown.
# (§2) In parallel to the aforementioned assay, we performed analogous experiments in which isolated PBP-containing membrane preparations instead of intact cells were pre-exposed to avibactam. Briefly, membrane preparations containing PBPs were obtained by following previously described protocols and were incubated for 15, 30 and 60 min at 37 °C in the presence of 4 µg/mL avibactam and were afterwards labeled with bocillin FL (25 μM). Determination of the PBP fraction unbound was performed as described in the above section.
# [2] = target: PBP4 (Pseudomonas aeruginosa, UniProt Q9HZG1); assay: as above; parameters: species or system P. aeruginosa PAO1; settings: isolated PAO1 membranes, 4 µg/mL avibactam, 15-60 min; read-out: PBP4 total fraction bound
# Chain of PBP4 (Q9HZG1 entry or part of it): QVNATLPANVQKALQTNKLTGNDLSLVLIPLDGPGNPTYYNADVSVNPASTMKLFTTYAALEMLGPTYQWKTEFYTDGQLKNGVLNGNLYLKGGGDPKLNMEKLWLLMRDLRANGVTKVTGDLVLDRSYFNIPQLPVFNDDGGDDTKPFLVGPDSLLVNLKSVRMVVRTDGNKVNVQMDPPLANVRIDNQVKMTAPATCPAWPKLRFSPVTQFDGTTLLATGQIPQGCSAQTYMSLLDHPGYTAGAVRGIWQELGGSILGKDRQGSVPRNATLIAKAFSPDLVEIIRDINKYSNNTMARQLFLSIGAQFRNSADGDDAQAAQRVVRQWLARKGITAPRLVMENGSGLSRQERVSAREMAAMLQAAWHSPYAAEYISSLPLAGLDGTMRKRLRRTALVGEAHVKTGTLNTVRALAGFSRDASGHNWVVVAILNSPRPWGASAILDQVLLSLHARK
# Experimental: as §1, §2
# [3] = system: ampC mRNA in 103-H8 (AmpC E247K; PDC-221, CAZ/AVI-resistant ST175 clinical isolate); assay: qRT-PCR quantification of AmpC induction; format: cell-based, P. aeruginosa; settings: IPM 8, FOX 64, AVI 16 µg/mL, relative to strain basal t=0
# Experimental: (§3) Samples were taken at 0, 30 and 180 min. Total RNA was extracted with the RNeasy Mini Kit (Qiagen, Hilden, Germany) and treated with TURBO DNase (Thermo Fisher Scientific, Waltham, MA, USA) to remove contaminating DNA. Samples were afterwards normalized to 50 ng/µL.
# (§4) Normalized samples were then used for one-step reverse transcription and real-time PCR amplification using the QuantiTect SYBR green qRT-PCR kit (Qiagen, Hilden, Germany) in a CFX Connect Real-Time PCR System (Bio-Rad, Hercules, California, USA). Previously described primer pairs ACrnaF/ACrnaR and rpsL-1/rpsL-2 were used for the amplification of ampC and housekeeping gene rpsL, respectively. The mean values of relative mRNA expression (2^−ΔΔCt) obtained from at least two independent biological replicates and duplicate technical replicates were considered.
# [4] = system: ampC mRNA in 101-E5 (CAZ/AVI-sensitive ST175 clinical isolate); assay: qRT-PCR quantification of AmpC induction; format: cell-based, P. aeruginosa; settings: IPM 8, FOX 64, AVI 16 µg/mL, relative to strain basal t=0
# Experimental: as §3, §4
# [5] = system: ampC mRNA in wild-type PAO1; assay: qRT-PCR quantification of AmpC induction; format: cell-based, P. aeruginosa; settings: IPM 8, FOX 64, AVI 16 µg/mL, relative to strain basal t=0
# Experimental: as §3, §4
# [6] = system: ampC mRNA in 110-G8 (AmpC DelG229–E247; PDC-223, CAZ/AVI-resistant ST175 clinical isolate); assay: qRT-PCR quantification of AmpC induction; format: cell-based, P. aeruginosa; settings: IPM 8, FOX 64, AVI 16 µg/mL, relative to strain basal t=0
# Experimental: as §3, §4
# [7] = system: ampC mRNA in 109-E9 (CAZ/AVI-sensitive ST175 clinical isolate); assay: qRT-PCR quantification of AmpC induction; format: cell-based, P. aeruginosa; settings: IPM 8, FOX 64, AVI 16 µg/mL, relative to strain basal t=0
# Experimental: as §3, §4
compound,measurement,setting,value
NC(=O)[C@@H]1CC[C@@H]2CN1C(=O)N2OS(=O)(=O)O [Avibactam],inhibition at 4 µg/mL,[1],≤ 82%
same,inhibition at 4 µg/mL,[2],≤ 68%
same,Relative ampC expression,"[3]; 103-H8, 0 min",1.4
same,Relative ampC expression,"[3]; 103-H8, 30 min",2.1
same,Relative ampC expression,"[3]; 103-H8, 180 min",6.9
same,Relative ampC expression,"[4]; 101-E5, 0 min",1.2
same,Relative ampC expression,"[4]; 101-E5, 30 min",0.5
same,Relative ampC expression,"[4]; 101-E5, 180 min",3.1
same,Relative ampC expression,"[5]; PAO1, 0 min",1.1
same,Relative ampC expression,"[5]; PAO1, 30 min",5.8
same,Relative ampC expression,"[5]; PAO1, 180 min",60.6 ± 25.2
same,Relative ampC expression,"[5]; PAO1, 180 min, listed as AVI",60.6
same,Relative ampC expression,"[6]; 110-G8, 0 min",3.3
same,Relative ampC expression,"[6]; 110-G8, 30 min",2.6
same,Relative ampC expression,"[6]; 110-G8, 180 min",8.7
same,Relative ampC expression,"[7]; 109-E9, 0 min",0.9
same,Relative ampC expression,"[7]; 109-E9, 30 min",1.5
same,Relative ampC expression,"[7]; 109-E9, 180 min",6.2
